Test results taken from ChEMBL document CHEMBL4483862, “Open-source discovery of chemical leads for next-generation chemoprotective antimalarials” (2018).

Test system: Plasmodium berghei
Experiment: Luciferase/luciferin-expressing antifolate-resistant parasites were used to infect a culture of HepG2 cells that were pre-incubated with compounds. Infected hepatocytes emit light due to the luciferase reaction. Assay results are presented as the percent inhibition of light emission compared to control. […]
Format: functional
Settings: sporozoite; for IC90: read-out: LUCIFERASE INFECTION ASSAY - IC90
[1] = read-out: LUCIFERASE INFECTION ASSAY - IC50

## Cc1ccc2nc(C)c(CN3CCN(c4ccc([N+](=O)[O-])cc4Cl)CC3)n2c1
[1]
  IC50: > 10 µM
  IC90: > 10 µM

## CCC(CO)Nc1ccc2ncc(Br)n2n1 (configuration not stated)
HEPG2TOX_HILL_SLOPE 18.2, HEPG2TOX_R_SQUARED 0.907, PBLUC_HILL_SLOPE 0.763, PBLUC_R_SQUARED 0.712, read-out: LUCIFERASE INFECTION ASSAY - IC50
  IC50: 4.83 µM
  IC90: > 11.6 µM

## Cc1ccc(-c2noc(CCCN3CCN(C(=O)Cn4cnc5c(C)cccc5c4=O)CC3)n2)cc1
[1]
  IC50: > 10 µM
  IC90: > 10 µM

## CCCN1CCc2nc(Nc3ccc(Oc4ccccc4)cc3)ncc2C1
[1]
  IC50: > 9.16 µM
  IC90: > 9.16 µM

## FC(F)(F)c1cccc(-c2ccc3ncc(-c4ccc5c(c4)OCO5)n3n2)c1
[1]
  IC50: > 10 µM
  IC90: > 10 µM

## O=C(Nc1ccc(CN2CCCC2)cc1)c1[nH]nc2ccccc12
FFLUC_HILL_SLOPE 0.453, FFLUC_R_SQUARED 0.794, PBLUC_HILL_SLOPE 1.12, PBLUC_R_SQUARED 0.946, read-out: LUCIFERASE INFECTION ASSAY - IC50
  IC50: 0.718 µM
  IC90: 5.09 µM

## Cc1ccc(Nc2nc(CSc3nc4ccccc4c(=O)n3CCCCCCC(C)C)cs2)cc1
PBLUC_HILL_SLOPE 4.69, PBLUC_R_SQUARED 0.352, read-out: LUCIFERASE INFECTION ASSAY - IC50
  IC50: 7.63 µM
  IC90: > 10 µM

## CCCCNC(=O)N1CCC(C(=O)c2c(C)c(C)c(C)c(C)c2C)CC1
[1]
  IC50: > 9.2 µM
  IC90: > 9.2 µM

## N#Cc1ccc(Cl)cc1NC(=O)CNc1cc(C(F)(F)F)ccc1N1CCCC1
PBLUC_HILL_SLOPE 5.67, PBLUC_R_SQUARED 0.48, read-out: LUCIFERASE INFECTION ASSAY - IC50
  IC50: 2.82 µM
  IC90: 4.15 µM

## Cc1cccc(OCc2nnc(SCC(=O)c3ccc4c(c3)CCC4)o2)c1
[1]
  IC50: > 10 µM
  IC90: > 10 µM

## COC(=O)c1c(C)[nH]c(C(=O)C(C)OC(=O)c2ccccc2NS(=O)(=O)c2ccc(Br)s2)c1C (configuration not stated)
HEPG2TOX_HILL_SLOPE 1.22, HEPG2TOX_R_SQUARED 0.375, PBLUC_HILL_SLOPE 2.55, PBLUC_R_SQUARED 0.409, read-out: LUCIFERASE INFECTION ASSAY - IC50
  IC50: 7.98 µM
  IC90: > 10 µM

## CC(OC(=O)c1c2c(nc3ccccc13)/C(=C/c1cccs1)CCC2)C(=O)Nc1ccccc1C#N (configuration not stated)
FFLUC_HILL_SLOPE 1.58, FFLUC_R_SQUARED 0.34, HEPG2TOX_HILL_SLOPE 8.31, HEPG2TOX_R_SQUARED 0.803, PBLUC_HILL_SLOPE 17.4, PBLUC_R_SQUARED 0.614, read-out: LUCIFERASE INFECTION ASSAY - IC50
  IC50: 3.16 µM
  IC90: 3.58 µM

## COc1ccc(OCCN2CCN(c3ccc(S(=O)(=O)NC(C)C)cn3)CC2)cc1
[1]
  IC50: > 10 µM
  IC90: > 10 µM

## Cc1cccc(COc2cccc(C(=O)N3CCC(C(=O)NCc4ccccc4)CC3)c2)c1
HEPG2TOX_HILL_SLOPE 5.74, HEPG2TOX_R_SQUARED 0.455, read-out: LUCIFERASE INFECTION ASSAY - IC50
  IC50: > 10 µM
  IC90: > 10 µM

## CCOC(=O)c1c(C)[nH]c(C(=O)COC(=O)Cn2[nH]c(=O)c3ccccc3c2=O)c1C
HEPG2TOX_HILL_SLOPE 2.60, 1.21, HEPG2TOX_R_SQUARED 0.645, 0.988, read-out: LUCIFERASE INFECTION ASSAY - IC50
  IC50: > 10 µM
  IC90: > 10 µM

## Cc1cc(-n2c(C)cc(C(=O)Cn3ncc(Cl)c(Cl)c3=O)c2C)ccc1Br
FFLUC_HILL_SLOPE 3.61, FFLUC_R_SQUARED 0.511, HEPG2TOX_HILL_SLOPE 4.93, HEPG2TOX_R_SQUARED 0.864, PBLUC_HILL_SLOPE 65.8, PBLUC_R_SQUARED 0.0361, read-out: LUCIFERASE INFECTION ASSAY - IC50
  IC50: 5.65 µM
  IC90: 5.84 µM

## CC/C(=N\OC(=O)c1cccc(C(F)(F)F)c1)c1ccc(-c2ccccc2F)cc1
HEPG2TOX_HILL_SLOPE 1.72, HEPG2TOX_R_SQUARED 0.909, PBLUC_HILL_SLOPE 3.88, PBLUC_R_SQUARED 0.158, read-out: LUCIFERASE INFECTION ASSAY - IC50
  IC50: 6.84 µM
  IC90: > 7.94 µM

## Cc1cc(C)n(-c2nc(NCc3ccco3)cc(-c3ccccc3)n2)n1
PBLUC_HILL_SLOPE 3.01, PBLUC_R_SQUARED 0.273, read-out: LUCIFERASE INFECTION ASSAY - IC50
  IC50: 5.14 µM
  IC90: > 9.55 µM

## CC1CCc2c(sc3c2C(=O)NC(/C(Br)=C/c2ccccc2)N3)C1 (configuration not stated)
FFLUC_HILL_SLOPE 0.906, FFLUC_R_SQUARED 0.617, HEPG2TOX_HILL_SLOPE 7.13, HEPG2TOX_R_SQUARED 0.573, PBLUC_HILL_SLOPE 13.5, PBLUC_R_SQUARED 0.659, read-out: LUCIFERASE INFECTION ASSAY - IC50
  IC50: 3.35 µM
  IC90: 3.94 µM

## COc1ccc(Nc2nc(S(=O)(=O)c3ccc(C)cc3)c(Cl)s2)cc1
HEPG2TOX_HILL_SLOPE 11.4, HEPG2TOX_R_SQUARED 0.576, read-out: LUCIFERASE INFECTION ASSAY - IC50
  IC50: > 10 µM
  IC90: > 10 µM

## CCOc1ccc(/C=C/C(=O)C(C(N)=O)=C2SCCS2)cc1
[1]
  IC50: > 10 µM
  IC90: > 10 µM

## O=C(Nc1ccc(OCc2ccccc2)cc1)c1csc(C(O)c2cccc(Cl)c2)n1 (configuration not stated)
HEPG2TOX_HILL_SLOPE 2.48, HEPG2TOX_R_SQUARED 0.94, PBLUC_HILL_SLOPE 11.3, PBLUC_R_SQUARED 0.644, read-out: LUCIFERASE INFECTION ASSAY - IC50
  IC50: 3.07 µM
  IC90: 3.73 µM

## CCc1cc(=O)n2ncc(-c3ccc(Cl)cc3)c2[nH]1
HEPG2TOX_HILL_SLOPE 2.33, HEPG2TOX_R_SQUARED 0.563, PBLUC_HILL_SLOPE 7.25, PBLUC_R_SQUARED 0.422, read-out: LUCIFERASE INFECTION ASSAY - IC50
  IC50: 2.61 µM
  IC90: 3.53 µM

## Nc1ncnc(N/N=C/c2c(O)ccc3ccccc23)c1[N+](=O)[O-]
HEPG2TOX_HILL_SLOPE 0.612, HEPG2TOX_R_SQUARED 0.82, read-out: LUCIFERASE INFECTION ASSAY - IC50
  IC50: > 10 µM
  IC90: > 10 µM

## O=C(CCc1nc2ccccc2s1)OCCOc1ccccc1F
[1]
  IC50: > 10 µM
  IC90: > 10 µM

## CCOC(=O)c1sc(N)c(C#N)c1CSc1nnc(Nc2ccc(CC)cc2)s1
HEPG2TOX_HILL_SLOPE 1.26, HEPG2TOX_R_SQUARED 0.992, PBLUC_HILL_SLOPE 3.19, PBLUC_R_SQUARED 0.556, read-out: LUCIFERASE INFECTION ASSAY - IC50
  IC50: 2.58 µM
  IC90: 5.14 µM

## O=C1CCC(c2ccccc2)C(=O)/C1=N\Nc1ccc(Cl)cc1 (configuration not stated)
[1]
  IC50: > 10.1 µM
  IC90: > 10.1 µM

## COc1ccccc1C(=O)NCC#Cc1cccc(C(F)(F)F)c1
PBLUC_HILL_SLOPE 4.8, PBLUC_R_SQUARED 0.508, read-out: LUCIFERASE INFECTION ASSAY - IC50
  IC50: 5.64 µM
  IC90: 8.91 µM

## C=CCNc1nc(-c2ccccc2)c(C(=O)OCC)cc1C#N
HEPG2TOX_HILL_SLOPE 2.72, HEPG2TOX_R_SQUARED 0.984, PBLUC_HILL_SLOPE 4, PBLUC_R_SQUARED 0.181, read-out: LUCIFERASE INFECTION ASSAY - IC50
  IC50: 6.9 µM
  IC90: > 10.7 µM

## Cc1ccc(NC(=O)Nc2ccc3nc(Cc4ccccc4)nn3c2)cc1
HEPG2TOX_HILL_SLOPE 3.07, HEPG2TOX_R_SQUARED 0.95, PBLUC_HILL_SLOPE 55.2, PBLUC_R_SQUARED 0.375, read-out: LUCIFERASE INFECTION ASSAY - IC50
  IC50: 2.02 µM
  IC90: 2.11 µM

## O=C(Nc1ccc(-c2csc(N3CCOCC3)n2)cc1)c1ccc(Br)c([N+](=O)[O-])c1
[1]
  IC50: > 10 µM
  IC90: > 10 µM

## CCc1ccccc1-n1c(SCCn2c(=O)oc3ccccc32)nc2ccccc2c1=O
[1]
  IC50: > 10 µM
  IC90: > 10 µM

## c1ccc(Sc2c(-c3ccccc3)cc3ccccn23)cc1
FFLUC_HILL_SLOPE 15.3, FFLUC_R_SQUARED 0.586, PBLUC_HILL_SLOPE 15.5, PBLUC_R_SQUARED 0.389, read-out: LUCIFERASE INFECTION ASSAY - IC50
  IC50: 8.6 µM
  IC90: 9.91 µM

## COc1ccc(O)c(C=C(c2nc3ccccc3s2)c2nc3ccccc3s2)c1
FFLUC_HILL_SLOPE 21.2, FFLUC_R_SQUARED 0.491, read-out: LUCIFERASE INFECTION ASSAY - IC50
  IC50: > 10 µM
  IC90: > 10 µM

## CCOC(=O)c1cc(C#N)c(Sc2nnc(SCC3CC3)s2)nc1C(F)(F)F
HEPG2TOX_HILL_SLOPE 8.92, HEPG2TOX_R_SQUARED 0.488, read-out: LUCIFERASE INFECTION ASSAY - IC50
  IC50: > 7.39 µM
  IC90: > 7.39 µM

## O=C1C=C(SCC(=O)c2ccc([N+](=O)[O-])cc2)SC(c2ccccc2Cl)C1 (configuration not stated)
[1]
  IC50: > 7.86 µM
  IC90: > 7.86 µM

## CC(C)(C)c1ccc(C2=NNC(=NCCCN3CCOCC3)SC2)cc1
PBLUC_HILL_SLOPE 3.6, PBLUC_R_SQUARED 0.412, read-out: LUCIFERASE INFECTION ASSAY - IC50
  IC50: 5 µM
  IC90: 9.2 µM

## CSc1ncc(Nc2nc(-c3ccccc3)c(-c3ccccc3)s2)cn1
PBLUC_HILL_SLOPE 14.9, PBLUC_R_SQUARED 0.41, read-out: LUCIFERASE INFECTION ASSAY - IC50
  IC50: 3.61 µM
  IC90: 4.18 µM

## CCc1ccc(C(=O)Nc2nc3ccc(C)cn3c2C(=O)NC(C)CC)cc1 (configuration not stated)
HEPG2TOX_HILL_SLOPE 7.71, HEPG2TOX_R_SQUARED 0.568, PBLUC_HILL_SLOPE 11.7, PBLUC_R_SQUARED 0.544, read-out: LUCIFERASE INFECTION ASSAY - IC50
  IC50: 2.65 µM
  IC90: 3.2 µM

## Cc1ccc2[nH]c3c(c2c1)CCCC3NCCCN(C)C (configuration not stated)
HEPG2TOX_HILL_SLOPE 41.7, HEPG2TOX_R_SQUARED 0.689, PBLUC_HILL_SLOPE 2.08, PBLUC_R_SQUARED 0.555, read-out: LUCIFERASE INFECTION ASSAY - IC50
  IC50: 4.94 µM
  IC90: > 11.5 µM

## CC(C)c1ccc(C(=O)Nc2ccccn2)cc1
FFLUC_HILL_SLOPE 1.25, FFLUC_R_SQUARED 0.914, PBLUC_HILL_SLOPE 0.406, PBLUC_R_SQUARED 0.482, read-out: LUCIFERASE INFECTION ASSAY - IC50
  IC50: 1.63 µM
  IC90: > 13.7 µM
